Test system: tobacco leaf
Experiment: Tobacco leaf infiltration tests, macroscopic symptoms under white light
Format: in vivo
Conditions: 50 μl, 8 days after infiltration
Experimental: Various tobacco leaf infiltration tests were carried out with 50 μl of solution as follows: Eight days after infiltration, macroscopic symptoms were observed under white light and under UV light (wavelength=312 nm). In the figures, the numbers correspond to the spot of infiltration of the test of the same number.

| Structure (SMILES) | chlorosis or necrosis at the infiltrated sites (10 mM, white light (Test 6)) | necrosis in infiltrated foliar tissues (2 mM, white light (Test 7, positive control)) |
| --- | --- | --- |
| CC(N)CC(=O)O (stereo not drawn) [BABA, β-aminobutyric acid] | do not induce chlorosis or necrosis |  |
| O=C(O)c1ccccc1O [Salicylic acid, salicylic acid] |  | causes necrosis |

Source: patent US9788552B2, “Use of a natural grape marc extract in order to stimulate the natural defenses of plants” (CENTRE NATIONAL DE LA RECHERCHE SCIENTIFIQUE—CNRS, priority 2010, dated 2017)
